Patent US9789099B2, “Cosmetic or dermatological preparation for prophylaxis and/or treatment of atopic dermatitis” (Beiersdorf AG, priority 2012, dated 2017)

Experiments:
Type in all cases: in vivo, human
[1] = system: patients with atopic dermatitis of mild to moderate severity; experiment: Randomized, blind, controlled two-armed study: dermatologist-assessed clinical severity (local SCORAD, erythema)
Excerpt: Using a randomized, blind (participant), controlled, two-armed study design, it was the aim to evaluate the cortisone saving potential and the non-inferiority of the test sample during an application twice daily lasting for four weeks compared to the once-weekly treatment with 1% hydrocortisone (HC), followed by an application of the test sample for a further three weeks. The study results were based on an assessment, controlled by the dermatologist, of the degree of severity of the clinical size of atopic dermatitis, the colonization of the skin lesions with S. aureus, biotechnological measurement of parameters of the epidermal barrier function, as well as the itching intensity in the test area.

S. aureus = experiment: Same study: colonization of the skin lesions with S. aureus; settings: topical; same two-arm design
Excerpt: (§1) Using a randomized, blind (participant), controlled, two-armed study design, it was the aim to evaluate the cortisone saving potential and the non-inferiority of the test sample during an application twice daily lasting for four weeks compared to the […] treatment with 1% hydrocortisone (HC), followed by an application of the test sample for a further three weeks. The study results were based on an assessment, controlled by the dermatologist, of the degree of severity of the clinical size of atopic dermatitis, the colonization of the skin lesions with S. aureus, biotechnological measurement of parameters of the epidermal barrier function, as well as the itching intensity in the test area.

[2] = system: lesional skin of patients with atopic dermatitis; experiment: Same study: parameters of the epidermal barrier function (TEWL, skin moisture) on lesional skin
Excerpt: as §1

C[C@]12CCC(=O)C=C1CC[C@@H]1[C@@H]2[C@@H](O)C[C@@]2(C)[C@H]1CC[C@]2(O)C(=O)CO [1% hydrocortisone, hydrocortisone]
erythema ([1]; topical, same two-arm design): significant reduction
local SCORAD ([1]; topical, test sample twice daily for four weeks vs 1% HC for first week followed by test sample for three weeks): significant reduction
changes in local SCORAD, erythema, TEWL and S. aureus colonization relative to the other arm ([1]; within the first study week, differences between arms not significant apart from TEWL on day 7): greater changes
colonization of skin lesions with S. aureus (S. aureus): significant reduction
skin moisture of lesional skin ([2]; application in the first study week): only slightly
lesional skin TEWL (transepidermal water loss) ([2]; topical, same two-arm design): significant reduction
